Test results: patent publication US20220177428A1, “SPECIFICALLY SUBSTITUTED 3-(2-ALKOXY-6-ALKYL-4-PROPINYLPHENYL)-3-PYRROLIN-2-ONES AND THEIR USE AS HERBICIDES” (Bayer Aktiengesellschaft, priority 2019, published 2022)

How the values were obtained:
Format in all cases: in vivo
Echinochloa crus-galli [1] = assay: Pre-emergence herbicidal effect; settings: visual score after 3 weeks
Text: (§1) Seeds of monocotyledonous and dicotyledonous weed plants and crop plants are laid out in sandy loam soil in wood-fibre pots and covered with soil. The compounds of the invention, formulated in the form of wettable powders (WP) or as emulsion concentrates (EC), are then applied to the surface of the covering soil as aqueous suspension or emulsion at a water application rate equating to 600 to 800 L/ha with addition of 0.2% wetting agent. After the treatment, the pots are placed in a greenhouse and kept under good growth conditions for the trial plants. The damage to the test plants is scored visually after a test period of 3 weeks by comparison with untreated controls (herbicidal activity in percent (%): 100% activity=the plants have died, 0% activity=like control plants). [table]

Alopecurus myosuroides [2] = assay: Pre-emergence herbicidal effect; settings: visual score after 3 weeks
Text: as §1

Viola tricolor = assay: Pre-emergence herbicidal effect; settings: visual score after 3 weeks
Text: as §1

Setaria viridis [3] = assay: Pre-emergence herbicidal effect; settings: visual score after 3 weeks
Text: as §1

Amaranthus retroflexus = assay: Pre-emergence herbicidal effect; settings: 320 g ai/ha, visual score after 3 weeks
Text: as §1

Lolium rigidum [4] = assay: Pre-emergence herbicidal effect; settings: visual score after 3 weeks
Text: as §1

Veronica persica = assay: Pre-emergence herbicidal effect; settings: 320 g ai/ha, visual score after 3 weeks
Text: as §1

Matricaria inodora = assay: Pre-emergence herbicidal effect; settings: 320 g ai/ha, visual score after 3 weeks
Text: as §1

Abutylon threophrasti = assay: Pre-emergence herbicidal effect; settings: 320 g ai/ha, visual score after 3 weeks
Text: as §1

Avena fatua [5] = assay: Pre-emergence herbicidal effect; settings: visual score after 3 weeks
Text: as §1

Digitaria sanguinalis [6] = assay: Pre-emergence herbicidal effect; settings: visual score after 3 weeks
Text: as §1

Echinochloa crus-galli [7] = assay: Post-emergence herbicidal effect; settings: 80 g ai/ha, visual score after about 3 weeks
Method: (§2) [table] Seeds of monocotyledonous and dicotyledonous weed and crop plants are laid out in sandy loam soil in wood-fibre pots, covered with soil and cultivated in a greenhouse under good growth conditions. 2 to 3 weeks after sowing, the test plants are treated at the one-leaf stage. The compounds of the invention, formulated in the form of wettable powders (WP) or as emulsion concentrates (EC), are then sprayed onto the green parts of the plants as aqueous suspension or emulsion at a water application rate equating to 600 to 800 L/ha with addition of 0.2% wetting agent. After the test plants have been left to stand in the greenhouse under optimal growth conditions for about 3 weeks, the action of the preparations is assessed visually in comparison to untreated controls (herbicidal action in percent (%): 100% activity=the plants have died, 0% activity=like control plants).

Alopecurus myosuroides [8] = assay: Post-emergence herbicidal effect; settings: 80 g ai/ha, visual score after about 3 weeks
Method: as §2

Setaria viridis [9] = assay: Post-emergence herbicidal effect; settings: 80 g ai/ha, visual score after about 3 weeks
Method: as §2

Lolium rigidum [10] = assay: Post-emergence herbicidal effect; settings: 80 g ai/ha, visual score after about 3 weeks
Method: as §2

Avena fatua [11] = assay: Post-emergence herbicidal effect; settings: 80 g ai/ha, visual score after about 3 weeks
Method: as §2

Digitaria sanguinalis [12] = assay: Post-emergence herbicidal effect; settings: 80 g ai/ha, visual score after about 3 weeks
Method: as §2

## CC#Cc1cc(C)c(C2=C(OC(=O)OCC)C3(CCC(COC)CC3)NC2=O)c(OC)c1 (stereo not drawn) [Example Q8]
Echinochloa crus-galli [1]; 80 g ai/ha
  Pre-emergence activity ECHCG: 100%
Echinochloa crus-galli [1]; 320 g ai/ha
  Pre-emergence activity ECHCG: 100%
Alopecurus myosuroides [2]; 80 g ai/ha
  Pre-emergence activity ALOMY: 100%
Alopecurus myosuroides [2]; 320 g ai/ha
  Pre-emergence activity ALOMY: 100%
Viola tricolor; 80 g ai/ha
  Pre-emergence activity VIOTR: 100%
Viola tricolor; 320 g ai/ha
  Pre-emergence activity VIOTR: 100%
Setaria viridis [3]; 80 g ai/ha
  Pre-emergence activity SETVI: 100%
Setaria viridis [3]; 320 g ai/ha
  Pre-emergence activity SETVI: 100%
Amaranthus retroflexus
  Pre-emergence activity AMARE: 100%
Lolium rigidum [4]; 80 g ai/ha
  Pre-emergence activity LOLRI: 100%
Lolium rigidum [4]; 320 g ai/ha
  Pre-emergence activity LOLRI: 100%
Veronica persica
  Pre-emergence activity VERPE: 100%
Matricaria inodora
  Pre-emergence activity MATIN: 100%
Abutylon threophrasti
  Pre-emergence activity ABUTH: 100%
Avena fatua [5]; 80 g ai/ha
  Pre-emergence activity AVEFA: 80%
Avena fatua [5]; 320 g ai/ha
  Pre-emergence activity AVEFA: 100%
Digitaria sanguinalis [6]; 80 g ai/ha
  Pre-emergence activity DIGSA: 100%
Digitaria sanguinalis [6]; 320 g ai/ha
  Pre-emergence activity DIGSA: 100%
Echinochloa crus-galli [7]
  Post-emergence activity ECHCG: 100%
Alopecurus myosuroides [8]
  Post-emergence activity ALOMY: 100%
Setaria viridis [9]
  Post-emergence activity SETVI: 100%
Lolium rigidum [10]
  Post-emergence activity LOLRI: 100%
Avena fatua [11]
  Post-emergence activity AVEFA: 100%
Digitaria sanguinalis [12]
  Post-emergence activity DIGSA: 100%
